Test results: US5366733A, “Method for the treatment of periodontal disease by sustained delivery of a therapeutic agent to the periodontal pocket, and composition of matter therefor” (priority 1991, dated 1994)

Assays:
[1] = dog, in vivo
Description: Therefore, a study to evaluate four different minocycline periodontal formulations relative to determining minocycline levels in crevicular fluid was conducted in a dog model. The study utilized beagle dogs with surgically created "chronic" intrabony periodontal defects. This model entails the extraction of the two lower fourth premolars and the induction of surgically created intrabony defects at the mesial surface of the first molars and distal surface of the third premolars.
In sequence, the defects were created as follows: First, the lower fourth premolars were extracted, sockets were allowed to heal for one month, and dogs received a full mouth scaling and tooth cleaning. […] Dogs were monitored for an additional four weeks.
For evaluation of crevicular levels of minocycline, dogs were placed under general anesthesia, and the various formulations were administered into the periodontal pockets associated with the created defects. […] The strip was then removed, and the relative amount of fluid was determined by a Periotron 6000 instrument. […]
Strips were assayed for minocycline by a microbiological technique that involves use of the minocycline-susceptible bacterium, Bacillus cereus. […] Zones of inhibited bacterial growth were plotted, and the quantity of minocycline present was determined by comparison with zones obtained with minocycline solutions of known concentration. […]

[2] = system: organisms associated with periodontal disease; details: cited from earlier work

Periods for which minimum inhibitory concentrations (MIC's) can be achieved [1]: up to two
SMILES: CN(C)c1ccc(O)c2c1C[C@H]1C[C@H]3[C@H](N(C)C)C(O)=C(C(N)=O)C(=O)[C@@]3(O)C(O)=C1C2=O [minocycline, 7-dimethylamino-6-deoxy-6-demethyltetracycline]
MIC's for organisms associated with periodontal disease [2]: 0.05 to 1.56 µg/mL
